Experimental data reported in ChEMBL document CHEMBL4417631, “Oral peptide inhibitors of interleukin-23 receptor and their use to treat inflammatory bowel diseases” (2017).
Where a SMILES comes first, the peptide text is derived from it. [ ]: non-standard residue; d: D form. hLeu = CC(C)CC[C@H](N)C(=O)O

Biological target: T1, Interleukin-23 receptor (Homo sapiens, UniProt Q5VWK5)
T1 sequence (Q5VWK5 whole entry): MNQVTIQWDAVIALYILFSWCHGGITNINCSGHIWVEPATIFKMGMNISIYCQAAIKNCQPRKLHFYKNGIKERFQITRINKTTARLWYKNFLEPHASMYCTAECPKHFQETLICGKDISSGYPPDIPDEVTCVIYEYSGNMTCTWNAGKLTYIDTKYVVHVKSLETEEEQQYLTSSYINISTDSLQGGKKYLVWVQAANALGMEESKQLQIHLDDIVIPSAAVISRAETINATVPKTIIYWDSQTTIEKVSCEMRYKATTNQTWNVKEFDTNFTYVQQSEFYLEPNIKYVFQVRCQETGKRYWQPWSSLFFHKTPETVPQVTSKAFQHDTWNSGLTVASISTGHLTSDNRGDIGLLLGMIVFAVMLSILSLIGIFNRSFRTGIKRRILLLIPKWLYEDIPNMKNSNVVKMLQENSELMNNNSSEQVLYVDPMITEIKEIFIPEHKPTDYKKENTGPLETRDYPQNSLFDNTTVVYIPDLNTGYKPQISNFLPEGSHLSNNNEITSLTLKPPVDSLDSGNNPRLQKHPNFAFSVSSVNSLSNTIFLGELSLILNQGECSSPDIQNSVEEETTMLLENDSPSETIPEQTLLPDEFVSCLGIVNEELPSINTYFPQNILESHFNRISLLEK
Experiment: Inhibition of interleukin-23 binding to human interleukin-23 receptor incubated for 2 hrs by competitive binding ELISA

Structure (SMILES)	IC50 [µM]
CC(=O)N[C@@H](CS)C(=O)N[C@@H](C)C(=O)N[C@@H](CC(=O)O)C(=O)N[C@@H](Cc1c[nH]c2ccccc12)C(=O)N[C@H](C(=O)N[C@H](C(=O)N[C@@H](Cc1ccc(O)cc1)C(=O)N[C@@H](Cc1c[nH]c2ccccc12)C(=O)N[C@@H](Cc1cnc[nH]1)C(=O)N[C@H](C(=O)N[C@@H](Cc1ccccc1)C(=O)NCC(N)=O)[C@@H](C)O)C(C)(C)S)C(C)C	1 to 10
N=C(N)NCCC[C@H](NC(=O)[C@H](Cc1c[nH]c2ccccc12)NC(=O)[C@H](Cc1ccc(O)cc1)NC(=O)[C@@H]1CSCCC(=O)N[C@@H](CCC(N)=O)C(=O)N[C@@H](CC(=O)O)C(=O)N[C@@H](Cc2c[nH]c3ccccc23)C(=O)N[C@@H](CCC(N)=O)C(=O)N1)C(=O)N[C@@H](CCC(=O)O)C(=O)N[C@@H](CC(N)=O)C(=O)NCC(=O)NCCOCC(=O)N[C@H](CCCCN)C(N)=O	30
CC(=O)N[C@@H](CS)C(=O)N[C@@H](CCC(N)=O)C(=O)N[C@H](C(=O)N[C@@H](Cc1c[nH]c2ccccc12)C(=O)N[C@@H](CCC(N)=O)C(=O)N[C@@H](CS)C(=O)N[C@@H](Cc1ccc(O)cc1)C(=O)N[C@@H](CCc1ccccc1)CC(=O)N[C@@H](CCCNC(=N)N)C(=O)N[C@H](C(=O)N[C@@H](CC(N)=O)C(=O)NCC(=O)NCCOCC(=O)N[C@H](CCCCN)C(N)=O)C(C)C)[C@@H](C)O	> 30
CC(=O)N[C@@H](CS)C(=O)N[C@@H](CCC(N)=O)C(=O)N[C@H](C(=O)N[C@@H](Cc1c[nH]c2ccccc12)C(=O)N[C@@H](CCC(N)=O)C(=O)N[C@@H](CS)C(=O)N[C@@H](Cc1ccc(O)cc1)C(=O)N[C@@](C)(Cc1c[nH]c2ccccc12)C(=O)N[C@@H](CCC(C)C)C(=O)N[C@@H](CCC(=O)O)C(=O)N[C@@H](CCC(N)=O)C(=O)NCC(N)=O)[C@@H](C)O	> 30

Second part, the compound after the results:

IC50 [µM]	Structure (SMILES)
> 1	CC(=O)N[C@@H](CS)C(=O)N[C@@H](CCCNC(=N)N)C(=O)N[C@@H](CC(=O)O)C(=O)N[C@@H](Cc1c[nH]c2ccccc12)C(=O)N[C@@H](CCC(N)=O)C(=O)N[C@@H](CS)C(=O)N[C@@H](Cc1ccc(O)cc1)C(=O)N[C@@H](Cc1c[nH]c2ccccc12)C(=O)N[C@H](CCCNC(=N)N)C(=O)N[C@@H](CCCCN)C(=O)N[C@@H](Cc1ccccc1)C(=O)NCC(=O)NCCOCCC(=O)N[C@H](CCCCN)C(N)=O
> 10	CC(=O)N[C@@H](CS)C(=O)N[C@@H](CCC(N)=O)C(=O)N[C@H](C(=O)N[C@H](C(=O)N[C@@H](CCC(N)=O)C(=O)N[C@@H](CS)C(=O)N[C@@H](Cc1ccc(O)cc1)C(=O)N[C@@H](Cc1c[nH]c2ccccc12)C(=O)N[C@@H](CCC(C)C)C(=O)N[C@@H](CCC(=O)O)C(=O)N[C@@H](CC(N)=O)C(=O)NCC(N)=O)[C@@H](C)O)[C@@H](C)O (Ac-CQTTQCYW[hLeu]ENG-NH2)
< 0.5	CC(=O)N[C@@H](CS)C(=O)N[C@@H](C)C(=O)N[C@@H](CC(=O)O)C(=O)N[C@@H](Cc1c[nH]c2ccccc12)C(=O)N[C@H](C(=O)N[C@@H](CS)C(=O)N[C@@H](Cc1ccc(O)cc1)C(=O)N[C@@H](Cc1c[nH]c2ccccc12)C(=O)N[C@@H](Cc1cnc[nH]1)C(=O)N[C@H](C(=O)N[C@@H](Cc1ccccc1)C(=O)NCC(=O)O)[C@@H](C)O)C(C)C
> 30	CC(=O)N[C@@H](CS)C(=O)N[C@@H](C)C(=O)N[C@@H](CC(=O)O)C(=O)N[C@@H](Cc1c[nH]c2ccccc12)C(=O)N[C@H](C(=O)N[C@@H](CS)C(=O)N[C@@H](Cc1ccc(O)cc1)C(N)=O)C(C)C
< 0.5	CC(=O)N[C@@H](CS)C(=O)N[C@H](C(=O)N[C@H](C(=O)N[C@@H](Cc1c[nH]c2ccccc12)C(=O)N[C@@H](CCC(=O)O)C(=O)N[C@@H](CS)C(=O)N[C@@H](Cc1ccc(O)cc1)C(=O)N[C@@H](Cc1c[nH]c2ccccc12)C(=O)N[C@@H](Cc1cnc[nH]1)C(=O)N[C@@H](CCC(N)=O)C(=O)N[C@@H](Cc1ccccc1)C(=O)NCC(N)=O)[C@@H](C)O)[C@@H](C)O (Ac-CTTWECYWHQFG-NH2)
